From ChEMBL document CHEMBL4651402, “Screening of ~5500 FDA-approved drugs and clinical candidates for anti-SARS-CoV-2 activity” (2021)

Tested on: SARS-CoV-2
Experiment: microbe, parasite or virus in culture
Settings: Severe acute respiratory syndrome coronavirus 2, Vero C1008, 48 h

Row | SMILES | IC50 [µM] | IC50 (read-out: pIC50 (converted)) [µM]
1 | Cn1nnc2ccc(C(c3ccc(Cl)cc3)n3cncn3)cc21 (stereo not drawn) [rac-VOROZOLE] | > 20 | > 20
2 | CCn1cc(C(=O)O)c(=O)c2cnc(N3CCCC3)nc21 [PIROMIDIC ACID] | > 20 | > 20
3 | CN1C(=N)N(c2ccccc2)CC1=O [AZOLIMINE] | > 20 | > 20
4 | COc1ccc2c3c1O[C@H]1[C@@H](O)C=C[C@H]4[C@@H](C2)[N@+](C)([O-])CC[C@@]341 | > 20 | > 20
5 | CCOC[C@]12Cc3cnn(-c4ccc(F)cc4)c3C=C1CCN(S(=O)(=O)c1ccc(C(F)(F)F)cc1)C2 [CORT 108297] | > 20 | > 20
6 | Oc1ccc2c(c1)[C@@]13CCCC[C@@]1(O)[C@@H](C2)N(CC1CCC1)CC3 [BUTORPHANOL] | > 20 | > 20
7 | CC(=O)[C@H]1CC[C@H]2[C@@H]3CC=C4C[C@@H](OS(=O)(=O)O)CC[C@]4(C)[C@H]3CC[C@]12C | > 20 | > 20
8 | N#Cc1c(Cl)c(Cl)c(Cl)c(C#N)c1Cl [CHLOROTHALONIL] | > 20 | > 20
9 | CN(C)C(=O)CCn1nc(Nc2ccc3c(c2)OC(F)(F)O3)nc1-c1ccncc1 [JNJ-39393406] | > 20 | > 20
10 | COc1cc2c(Oc3ccc4[nH]c(C)cc4c3F)ncnc2cc1OCCCN1CCCC1 [CEDIRANIB] | > 20 | > 20
11 | CN(C)[C@@H](CCOc1cccc2ccccc12)c1ccccc1 [DAPOXETINE] | > 20 | > 20
12 | COCCOC(=O)C1=C(C)NC(C)=C(C(=O)OC/C=C/c2ccccc2)C1c1cccc([N+](=O)[O-])c1 (stereo not given) [CILNIDIPINE] | > 20 | > 20
13 | c1ccc2cc(COC3CCNCC3)ccc2c1 [LITOXETINE] | > 20 | > 20
14 | C[N+]1(C)CCCC(OC(=O)C(O)(c2ccccc2)c2ccccc2)C1 (stereo not given) [MEPENZOLATE] | > 20 | > 20
15 | CNC(=O)c1ccc2cc([C@]3(O)CCn4cncc43)ccc2c1 | > 20 | > 20
16 | Cc1onc(-c2ccccc2Cl)c1C(=O)N[C@@H]1C(=O)N2[C@@H]1SC(C)(C)[C@@H]2C(=O)O [CLOXACILLIN] | > 20 | > 20
17 | C[C@H](CCC(=O)NCC(=O)O)[C@H]1CC[C@H]2[C@@H]3[C@H](O)C[C@@H]4C[C@H](O)CC[C@]4(C)[C@H]3C[C@H](O)[C@]12C [GLYCOCHOLIC ACID] | > 20 | > 20
18 | O=c1c2cc(O)c(O)cc2oc2cc(O)c([C@@H]3O[C@H](CO)[C@@H](O)[C@H](O)[C@H]3O)c(O)c12 [MANGIFERIN] | > 20 | > 20
19 | CN(C)S(=O)(=O)c1ccc2c(c1)N(C1CN3CCC1CC3)c1ccccc1S2 (stereo not given) [QUISULTAZINE] | > 20 | > 20
20 | CC1(C)[C@@H](O[C@H]2O[C@H](C(=O)O)[C@@H](O)[C@H](O)[C@H]2O[C@@H]2O[C@H](C(=O)O)[C@@H](O)[C@H](O)[C@H]2O)CC[C@]2(C)[C@H]3C(=O)C=C4[C@@H]5C[C@@](C)(C(=O)O)CC[C@]5(C)CC[C@@]4(C)[C@]3(C)CC[C@@H]12 [GLYCYRRHIZIN] | > 20 | > 20
21 | N[C@@H](CCC(=O)N[C@@H](CS)C(=O)NCC(=O)O)C(=O)O [GLUTATHIONE] | > 20 | > 20
22 | COC(=O)C(O)c1ccccc1 (stereo not given) [MANDELIC ACID, METHYL ESTER] | > 20 | > 20
23 | O=C(C[n+]1ccn(CC(OCc2ccc(Cl)cc2Cl)c2ccc(Cl)cc2Cl)c1)c1ccc(F)cc1 (stereo not given) [FLUDAZONIUM] | > 20 | > 20

Row | SMILES | IC50 [µM] | IC50 (read-out: pIC50 (converted)) [µM]
24 | CC(=O)[C@@]1(O)CC[C@H]2[C@@H]3C=C(Cl)C4=CC(=O)[C@@H]5C[C@@H]5[C@]4(C)[C@H]3CC[C@@]21C [CYPROTERONE] | > 20 | > 20
25 | N[C@@H](Cc1ccc(N(CCCl)CCCl)cc1)C(=O)O | > 20 | > 20
26 | CC(=O)NC1(c2ccccc2)CCN(CC[C@@H](CN(C)C(=O)c2ccccc2)c2ccc(Cl)c(Cl)c2)CC1 | > 20 | > 20
27 | C#CCN(C)Cc1ccccc1 [PARGYLINE] | > 20 | > 20
28 | C=C1CC2C3C=C(C)C4=CC(=O)CCC4(C)C3CCC2(C)C1(OC(C)=O)C(C)=O (stereo not given) | > 20 | > 20
29 | COc1c(C)c2c(c(O)c1C/C=C(\C)CCC(=O)OCCN1CCOCC1)C(=O)OC2 [MYCOPHENOLATE MOFETIL] | > 20 | > 20
30 | N[C@@H]1CC[C@@H](c2ccc(Cl)c(Cl)c2)c2ccccc21 [DASOTRALINE] | > 20 | > 20
31 | COc1cc2c(cc1O)CC[C@@H]1[C@@H]2CC[C@]2(C)[C@@H](O)CC[C@@H]12 [2-METHOXYESTRADIOL] | > 20 | > 20
32 | CCC(C)C(=O)OC1CC2(C)C(c3ccoc3)OC(=O)CC23OC2(C)OC34C(OC(=O)C(C)C)C3(O)C(OC(=O)C5(C)OC5C)C5(C)CC3(O)C(C)(C5CC(=O)OC)C14O2 (stereo not given) | > 20 | > 20
33 | COC(=O)C1=COC(O[C@H]2OC(CO)[C@H](O)C(O)C2O)[C@H]2C1C(=O)C[C@@H]2C (stereo not given in full) | > 20 | > 20
34 | CC(C)(C)NCC(O)c1ccc(O)c(CS(C)(=O)=O)c1 (stereo not given) [SULFONTEROL] | > 20 | > 20
35 | COC(=O)C1=C(C)NC(C)=C(C(=O)OCCN2CCN(C(c3ccccc3)c3ccccc3)CC2)C1c1cccc([N+](=O)[O-])c1 (stereo not given) [MANIDIPINE 6300] | > 20 | > 20
36 | CCN1CCN(Cc2ccc(-c3cc4c(N[C@H](C)c5ccccc5)ncnc4[nH]3)cc2)CC1 [AEE-788] | > 20 | > 20
37 | Cc1cc(=O)oc2cc(O)cc(O)c12 [5,7-DIHYDROXY-4-METHYLCOUMARIN] | > 20 | > 20
38 | CS(=O)(=O)N1CCN(Cc2cc3nc(-c4cccc5[nH]ncc45)nc(N4CCOCC4)c3s2)CC1 [PICTILISIB] | > 20 | > 20
39 | NC(=O)C(CCN1CCN2CCCC2C1)(c1ccccc1)c1ccccc1 (stereo not given) [PIROLAZAMIDE] | > 20 | > 20
40 | NCCCC[C@H](OP(=O)(O)CCCCc1ccccc1)C(=O)N1CCC[C@H]1C(=O)O [CERONAPRIL] | > 20 | > 20
41 | CCC[N+]12C3C[C@@H]([C@H](CC)[C@H]1O)[C@H]1[C@H](O)[C@]4(C[C@@H]12)c1ccccc1N(C)[C@@H]34 | > 20 | > 20
42 | Cc1c(CN2CCN(C(=O)[C@H](C)O)CC2)sc2c(N3CCOCC3)nc(-c3cnc(N)nc3)nc12 [APITOLISIB] | > 20 | > 20
43 | C=C(C)[C@@H]1[C@@H]2OC(=O)[C@H]1[C@]1(O)C[C@H]3O[C@]34C(=O)O[C@H]2[C@]14C.CC(C)(O)[C@@H]1[C@@H]2OC(=O)[C@H]1[C@]1(O)C[C@H]3O[C@]34C(=O)O[C@H]2[C@]14C | > 20 | > 20
44 | Cc1c(NC(=O)C(C)N(C)C)c(=O)n(-c2ccccc2)n1C (stereo not given) | > 20 | > 20
45 | CC(C)OC(=O)[C@H](C)NP(=S)(OC[C@H]1O[C@@H](n2ccc(=O)[nH]c2=O)[C@](C)(O)[C@@H]1O)Oc1ccccc1 (stereo not given in full) [VX-135] | > 20 | > 20
